In paper PMC7318222, “A Family of Water‐Immiscible, Dipolar Aprotic, Diamide Solvents from Succinic Acid” (Chemsuschem, 2020):

Experiments:
Miscibility with water = assay type: physicochemical; settings: this work
Miscibility with hexane = assay type: physicochemical; settings: this work

CN(C)C=O [DMF, N,N‐dimethylformamide]
Water misc. (Miscibility with water): yes^[a] | Hexane misc. (Miscibility with hexane): no^[a]
